Where a name gives a salt, the structure may show the parent alone.
Legend:
[1] = system: white blood cell count (WBC); settings: patients; cited from earlier work
Neutrophils = assay: Myelosuppression (reduction of neutrophils) by NAT-2 genotype in patients; format: in vivo, human
Procedure: Thirty-two (32) patients were treated amonafide dihydrochloride. Sixteen (16) were male and sixteen (16) were female. The mean age was 65 years. The dose schedule was days 1, 8, 15 and thereafter every 28 days. The dosages ranged from 300 to 500 mg/m^2 in a dose escalation studied to determine dose limiting toxicity (DLT).
Patients were genotyped to determine their NAT-2 (N-acetyl transferase) genotype. See D. W. Hein, et al., “Molecular Genetics and Epidemiology of the NAT1 and NAT2 Acetylation Polymorphisms,” Cancer Epidemiology, Biomarkers & Prevention Vol. 9, 29-42, January 2000.

[2] = Water solubility of amonafide salts; format: physicochemical; settings: as compared to a monohydrochloride salt

Row | Compound | effect on white blood cell count [1] | Average % Reduction of Neutrophils (Neutrophils; I/R (Fast) genotype, 18 patients, dose 400 mg/m2) [%] | Average % Reduction of Neutrophils (Neutrophils; I/R (Fast) genotype, 18 patients, dose 400 mg/m2, listed as amonafide) [%] | Average % Reduction of Neutrophils (Neutrophils; S (Slow) genotype, 14 patients, dose 500 mg/m2) [%] | solubility in water [2]
1 | CC(=O)Nc1cc2c3c(cccc3c1)C(=O)N(CCN(C)C)C2=O [acetyl amonafide, N-acetyl amonafide] | induce leukocytopenia and, in particular, granulocytopenia |  |  |  | 
2 | CN(C)CCN1C(=O)c2cccc3cc(N)cc(c23)C1=O [amonafide dihydrochloride, 5-amino-2-[(dimethylamine)ethyl]-1H-benz[de-]isoquinoline-1,3-(2H)-dione] |  | 78 | ~80 | 55 | more soluble in water

From US20110262383A1, “Naphthalimide Dosing by N-Acetyl Transferase Genotyping” (ChemGenex Pharmaceuticals, Inc., priority 2004, published 2011)
